Source: ChEMBL document CHEMBL3272075, “Direct measurement of octanol-water partition coefficients by high-pressure liquid chromatography” (J Med Chem, 1976)

What was measured:
physchem [1] = settings: octanol/water
Description: Partition coefficient, log P of the compound by HPLC analysis

physchem [2] = settings: octanol/water; remark: listed apart in the source
Description: Partition coefficient, log P of the compound by shake-flask technique

SMILES | logP (physchem [1]) | logP (physchem [2])
Brc1cnc2ccccc2c1 | 3.03 | 
Cc1ccnc2ccccc12 | 2.52 | 
Cc1cccnc1 [3-METHYLPYRIDINE] | 1.2 | 
CC(=O)Nc1ccccc1 [ACETANILIDE] | 1.14 | 1.16
c1ccc2nc3ccccc3cc2c1 [ACRIDINE] | 3.39 | 3.4
COc1ccccc1 [ANISOLE] | 2.1 | 
Nc1ccncc1 [DALFAMPRIDINE] | 0.26 | 0.28
c1ccc2cnccc2c1 [ISOQUINOLINE] | 2.09 | 2.08
c1ccc2nc3ccccc3nc2c1 [PHENAZINE] | 2.81 | 2.85
CC(=O)Nc1ccc(OCC(O)CNC(C)C)cc1 (stereo not drawn) [PRACTOLOL] | 0.78 | 0.79
c1ccc2ncccc2c1 [QUINOLINE] | 2.04 | 2.03
